This note sets out measurements from ChEMBL document CHEMBL1201862, “PubChem BioAssay data set” (2004).

Calls of active or inactive are those of the source.

Experiment [1] deals with H4. As to the kind of experiment: Luminescence Cell-Based Dose Response HTS to Identify Activators of 5'UTR Stem-Loop Driven Prion Protein mRNA Translation in H4 Neuroglioblastoma Cells. [Related pubchem assays: 1829 (Project Summary), 1814 (Primary HTS)]. Type of experiment: functional. Particulars: Homo sapiens.
A short description of experiment [2]: Luminescence Cell-Based Dose Confirmation to Identify Activators of 5'UTR Stem-Loop Driven Alpha-Synuclein mRNA Translation in H4 Neuroglioblastoma Cells. [Related pubchem assays: 1829 (Project Summary), 1814 (Primary HTS)]. It counts as functional.
A short description of experiment [3]: Luminescence Cell-Based Dose Confirmation HTS to Identify Activators of 5'UTR Stem-Loop Driven Alpha-Synuclein mRNA Translation in H4 Neuroglioblastoma Cells. [Related pubchem assays: 1829 (Project Summary), 1814 (Primary HTS)]. It counts as functional.
Experiment [4] can be described thus: Luminescence Cell-Based Dose Response to Identify Activators of Luciferase Translation or Activity in H4-C Neuroglioblastoma Cells. [Related pubchem assays: 1829 (Project Summary), 1814 (Primary HTS)]. It counts as functional.
Experiment [5] in a line: Luminescence Cell-Based Dose Response to Identify Activators of 5'UTR Stem-Loop Driven Prion Protein mRNA Translation in H4-C Neuroglioblastoma Cells. [Related pubchem assays: 1829 (Project Summary), 1814 (Primary HTS)]. Type of experiment: functional.
Experiment [6] is described as follows: Luminescence Cell-Based Dose Response HTS to Identify Activators of Luciferase Translation or Activity in H4 […] Cells. [Related pubchem assays: 1829 (Project Summary), 1814 (Primary HTS)]. Type of experiment: functional.
Experiment [7] addresses T1, Carboxy-terminal domain RNA polymerase II polypeptide A small phosphatase 1 (Homo sapiens, UniProt Q9GZU7).
T1 sequence (Q9GZU7 whole entry): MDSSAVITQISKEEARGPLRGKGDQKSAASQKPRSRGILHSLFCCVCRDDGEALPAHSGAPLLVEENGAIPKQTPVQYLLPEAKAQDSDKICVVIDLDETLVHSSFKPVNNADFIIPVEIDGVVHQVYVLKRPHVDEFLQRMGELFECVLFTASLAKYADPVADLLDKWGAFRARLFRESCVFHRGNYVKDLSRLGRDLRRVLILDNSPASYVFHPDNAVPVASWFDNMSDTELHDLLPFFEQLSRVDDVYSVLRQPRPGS
As to the kind of experiment: inhibitors of CTDSP1, concentration-response testing, biochemical assay, absorbance-based, actives from ultra-high-throughput screening (AID 540297). Type of experiment: functional.

Experiment [8] deals with NAD-dependent protein deacylase sirtuin-5, mitochondrial (Homo sapiens, UniProt Q9NXA8). The experiment can be described thus: SIRT5 desuccinylase inhibitors, dose response, biochemical, fluorescence imaging, cherry-pick, set 5 (AID 720591).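 Also: desuccinylation of succinyl peptide AMC substrate read as fluorescence after trypsin release; potency of inhibitors that lower fluorescence and may act on trypsin instead.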
In experiment [9] the target is T2, Rac GTPase-activating protein 1 (Homo sapiens, UniProt Q9H0H5).
T2 sequence (Q9H0H5 whole entry): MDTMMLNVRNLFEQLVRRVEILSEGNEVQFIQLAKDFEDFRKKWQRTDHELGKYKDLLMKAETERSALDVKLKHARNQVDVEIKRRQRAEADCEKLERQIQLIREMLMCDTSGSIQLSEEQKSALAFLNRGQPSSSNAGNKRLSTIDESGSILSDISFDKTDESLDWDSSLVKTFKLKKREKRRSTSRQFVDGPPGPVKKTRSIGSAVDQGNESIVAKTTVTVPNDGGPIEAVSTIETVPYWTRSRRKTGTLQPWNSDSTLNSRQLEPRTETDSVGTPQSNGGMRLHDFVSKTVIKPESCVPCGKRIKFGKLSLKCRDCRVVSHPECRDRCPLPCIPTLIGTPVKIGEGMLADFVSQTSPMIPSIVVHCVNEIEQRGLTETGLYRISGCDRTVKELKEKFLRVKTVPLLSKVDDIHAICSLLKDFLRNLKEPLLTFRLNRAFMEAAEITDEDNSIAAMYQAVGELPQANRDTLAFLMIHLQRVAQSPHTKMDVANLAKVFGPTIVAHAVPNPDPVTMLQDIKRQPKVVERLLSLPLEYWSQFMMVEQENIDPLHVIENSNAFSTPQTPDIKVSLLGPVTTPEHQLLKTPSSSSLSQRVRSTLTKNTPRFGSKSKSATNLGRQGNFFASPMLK
As to the kind of experiment: MgcRacGAP GTPase-activating activity inhibitors, confirmation, biochemical, ADP Hunter fluorescence, primary and confirmatory (AID 624330). Type of experiment: functional.

Experiment [10] is described as follows: M. tuberculosis H37Rv growth inhibitors, H37Rv strain (AID 1626). Type of experiment: functional.
The target of experiment [11] is T3, Calpain-2 catalytic subunit (Sus scrofa, UniProt P43367).
T3 sequence (P43367 whole entry): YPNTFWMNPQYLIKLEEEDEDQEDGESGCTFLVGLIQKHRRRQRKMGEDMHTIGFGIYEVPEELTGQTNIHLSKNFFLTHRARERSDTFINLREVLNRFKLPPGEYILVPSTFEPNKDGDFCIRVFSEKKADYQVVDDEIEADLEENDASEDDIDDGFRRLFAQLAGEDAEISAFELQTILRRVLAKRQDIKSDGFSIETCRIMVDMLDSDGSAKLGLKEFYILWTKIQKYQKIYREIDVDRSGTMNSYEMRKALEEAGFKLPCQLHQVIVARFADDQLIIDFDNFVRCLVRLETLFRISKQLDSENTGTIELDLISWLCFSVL
The experiment can be described thus: pig calpain II inhibitor potency, dose response, biochemical, fluorogenic peptide substrate (AID 1420). It counts as functional.

Experiment [12] in a line: cytotoxicity toward NIH3T3 fibroblasts, dose response, counter-screen, cell-based, ATP luminescence, mouse fibroblasts (AID 2010).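 Also: cells exposed to compound for about 90 hours before reading.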 Type of experiment: functional.
Experiment [13] can be described thus: inhibitors of intracellular T. cruzi replication, confirmation, NIH3T3 host cells, beta-gal luminescence (AID 2044).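 Also: intracellular parasites grown in NIH/3T3 mouse fibroblasts as host cells; luminescent beta-galactosidase reporter signal from transgenic T. cruzi replicating inside host cells; inhibitors lower the luminescence signal.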 Type of experiment: functional, cell-based.
The nature of experiment [14]: cells.
For experiment [15], the target named is Cytochrome P450 3A4 (Homo sapiens, UniProt P08684). Conditions: Potency.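 Also: confirmatory qHTS run detecting inhibitors and substrates of CYP3A4.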
Experiment [16] has as its target Voltage-dependent T-type calcium channel subunit alpha-1H (Homo sapiens, UniProt O95180). It counts as functional.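 Also: channel activity triggered by adding a high calcium stimulation buffer.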
Experiment [17] addresses Paired box protein Pax-8 (Homo sapiens, UniProt Q06710). As to the kind of experiment: inhibitors of PAX8-driven TPO luciferase reporter, dose response, RMG-I cells, cherry-pick (AID 687027).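 Also: luciferase reporter driven by Pax8 target thyroperoxidase promoter measured by SteadyGlo luminescence.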 It counts as functional, cell-based.
The nature of experiment [18]: HepG2 cell cytotoxicity, dose response, cytotoxicity control, cherry-picked samples (AID 1159577). Type of experiment: functional, cell-based.
A short description of experiment [19]: P. falciparum Dd2 growth inhibitors, dose response, SYBR Green, cherry-picked samples (AID 1159567). Type of experiment: functional, cell-based.
For experiment [20], the target named is T4, Tyrosine-protein phosphatase non-receptor type 7 (Homo sapiens, UniProt P35236).
T4 sequence (P35236 whole entry): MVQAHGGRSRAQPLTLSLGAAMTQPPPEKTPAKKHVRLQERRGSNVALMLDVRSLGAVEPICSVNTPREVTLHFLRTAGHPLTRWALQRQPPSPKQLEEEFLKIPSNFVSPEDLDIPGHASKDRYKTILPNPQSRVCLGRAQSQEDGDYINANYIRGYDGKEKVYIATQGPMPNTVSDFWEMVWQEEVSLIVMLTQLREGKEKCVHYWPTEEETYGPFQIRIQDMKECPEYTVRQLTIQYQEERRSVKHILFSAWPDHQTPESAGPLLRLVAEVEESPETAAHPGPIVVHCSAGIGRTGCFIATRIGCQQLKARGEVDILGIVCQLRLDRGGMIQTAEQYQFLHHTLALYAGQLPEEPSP
As to the kind of experiment: inhibitors of human HePTP phosphatase, […], biochemical, absorbance, leukemia target (AID 521). It counts as functional.

Experiment [21] has as its target E3 ubiquitin-protein ligase Mdm2 (Homo sapiens, UniProt Q00987). As to the kind of experiment: enhancers of MDM2-luciferase reporter signal, concentration-effect titration, project on inhibitors of MDM2 ubiquitin ligase, cellular assay, luminescent readout, 384-well plate format (AID 1394).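 Also: MDM2 E3 inhibitors raise luminescence so EC50 is for signal enhancement.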 Type of experiment: functional. Background: A reporter such as luciferase makes a cellular process visible.

Experiment [22] in a line: P. falciparum Dd2 growth inhibitors, dose response, SYBR Green, dry powder samples (AID 1159566).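 Also: potency for growth inhibition with lower SYBR green DNA signal.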 It counts as functional, cell-based.
Experiment [23] can be described thus: P. falciparum ATP4 D1247Y mutant growth inhibitors, dose response, NITD609-resistant line, SYBR Green, dry powder (AID 1159571).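 Also: parasites synchronized at ring stage by sorbitol before testing.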 It counts as functional, cell-based.
A short description of experiment [24]: P. falciparum 3D7-ScDHODH growth inhibitors, dose response, SYBR Green, dry powder samples (AID 1159570).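 Also: parasite growth measured after 72 hours of compound exposure.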 It counts as functional, cell-based.
Experiment [25] can be described thus: HepG2 cell cytotoxicity, dose response, cytotoxicity control, plate reader, dry powder samples (AID 1159569).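 Also: inhibitor potency with signal falling toward the positive control level.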 Type of experiment: functional, cell-based.
The target of experiment [26] is Protein Wnt-3a (Mus musculus, UniProt P27467). As to the kind of experiment: Wnt3a-driven reporter signaling inhibition, dose response, selectivity assay for Gli-SUFU antagonist project, Wnt-LIGHT cells, luminescence (AID 651570).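 Also: Wnt-LIGHT reporter cells stimulated with conditioned medium from Wnt3a-producing cells.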 Type of experiment: functional. Particulars: read-out: IC50_Mean.
Protein Wnt-3a, sequence (P27467 whole entry): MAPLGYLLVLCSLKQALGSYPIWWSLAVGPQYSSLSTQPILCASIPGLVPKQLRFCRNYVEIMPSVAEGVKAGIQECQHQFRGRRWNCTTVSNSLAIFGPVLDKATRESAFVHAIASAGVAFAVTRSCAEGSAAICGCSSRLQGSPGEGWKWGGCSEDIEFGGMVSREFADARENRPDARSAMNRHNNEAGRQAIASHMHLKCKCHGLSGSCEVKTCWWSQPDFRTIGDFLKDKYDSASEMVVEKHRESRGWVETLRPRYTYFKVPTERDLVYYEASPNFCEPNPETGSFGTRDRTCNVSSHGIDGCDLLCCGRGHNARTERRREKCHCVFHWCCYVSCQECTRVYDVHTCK

NAD-dependent protein deacylase sirtuin-5, mitochondrial, sequence (Q9NXA8 whole entry): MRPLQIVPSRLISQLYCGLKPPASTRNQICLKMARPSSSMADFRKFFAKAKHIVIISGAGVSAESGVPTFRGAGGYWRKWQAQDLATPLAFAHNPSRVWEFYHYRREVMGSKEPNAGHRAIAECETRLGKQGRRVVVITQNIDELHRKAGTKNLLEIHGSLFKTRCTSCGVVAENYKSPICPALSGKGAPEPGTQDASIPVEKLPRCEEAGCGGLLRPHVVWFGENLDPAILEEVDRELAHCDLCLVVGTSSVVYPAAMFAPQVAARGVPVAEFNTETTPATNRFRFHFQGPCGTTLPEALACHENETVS
E3 ubiquitin-protein ligase Mdm2, sequence (Q00987 whole entry): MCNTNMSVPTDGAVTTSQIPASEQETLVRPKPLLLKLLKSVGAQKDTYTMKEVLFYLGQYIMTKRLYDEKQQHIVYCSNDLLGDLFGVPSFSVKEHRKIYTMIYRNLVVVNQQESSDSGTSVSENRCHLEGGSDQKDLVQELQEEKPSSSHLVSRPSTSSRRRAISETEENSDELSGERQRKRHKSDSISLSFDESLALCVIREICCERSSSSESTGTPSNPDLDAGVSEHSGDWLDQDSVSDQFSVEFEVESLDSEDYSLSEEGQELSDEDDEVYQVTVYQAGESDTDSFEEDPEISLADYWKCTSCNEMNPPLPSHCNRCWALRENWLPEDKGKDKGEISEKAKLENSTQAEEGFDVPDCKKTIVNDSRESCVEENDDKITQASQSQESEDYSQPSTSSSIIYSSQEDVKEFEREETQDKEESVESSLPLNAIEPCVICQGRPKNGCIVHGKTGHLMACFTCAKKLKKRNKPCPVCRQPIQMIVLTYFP
Cytochrome P450 3A4, sequence (P08684 whole entry): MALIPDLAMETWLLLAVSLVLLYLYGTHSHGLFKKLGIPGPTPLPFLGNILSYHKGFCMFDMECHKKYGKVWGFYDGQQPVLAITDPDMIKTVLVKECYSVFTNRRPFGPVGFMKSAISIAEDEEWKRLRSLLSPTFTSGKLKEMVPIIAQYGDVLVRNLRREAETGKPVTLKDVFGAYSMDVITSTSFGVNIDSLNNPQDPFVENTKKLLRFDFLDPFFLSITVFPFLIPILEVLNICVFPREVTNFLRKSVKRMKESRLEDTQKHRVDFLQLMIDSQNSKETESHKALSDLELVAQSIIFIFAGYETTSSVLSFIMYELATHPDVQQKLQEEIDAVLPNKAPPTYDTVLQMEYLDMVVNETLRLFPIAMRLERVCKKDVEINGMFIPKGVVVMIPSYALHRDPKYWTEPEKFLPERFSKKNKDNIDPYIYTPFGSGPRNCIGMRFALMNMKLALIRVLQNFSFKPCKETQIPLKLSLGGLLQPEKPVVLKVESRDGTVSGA
Voltage-dependent T-type calcium channel subunit alpha-1H, sequence (O95180 whole entry): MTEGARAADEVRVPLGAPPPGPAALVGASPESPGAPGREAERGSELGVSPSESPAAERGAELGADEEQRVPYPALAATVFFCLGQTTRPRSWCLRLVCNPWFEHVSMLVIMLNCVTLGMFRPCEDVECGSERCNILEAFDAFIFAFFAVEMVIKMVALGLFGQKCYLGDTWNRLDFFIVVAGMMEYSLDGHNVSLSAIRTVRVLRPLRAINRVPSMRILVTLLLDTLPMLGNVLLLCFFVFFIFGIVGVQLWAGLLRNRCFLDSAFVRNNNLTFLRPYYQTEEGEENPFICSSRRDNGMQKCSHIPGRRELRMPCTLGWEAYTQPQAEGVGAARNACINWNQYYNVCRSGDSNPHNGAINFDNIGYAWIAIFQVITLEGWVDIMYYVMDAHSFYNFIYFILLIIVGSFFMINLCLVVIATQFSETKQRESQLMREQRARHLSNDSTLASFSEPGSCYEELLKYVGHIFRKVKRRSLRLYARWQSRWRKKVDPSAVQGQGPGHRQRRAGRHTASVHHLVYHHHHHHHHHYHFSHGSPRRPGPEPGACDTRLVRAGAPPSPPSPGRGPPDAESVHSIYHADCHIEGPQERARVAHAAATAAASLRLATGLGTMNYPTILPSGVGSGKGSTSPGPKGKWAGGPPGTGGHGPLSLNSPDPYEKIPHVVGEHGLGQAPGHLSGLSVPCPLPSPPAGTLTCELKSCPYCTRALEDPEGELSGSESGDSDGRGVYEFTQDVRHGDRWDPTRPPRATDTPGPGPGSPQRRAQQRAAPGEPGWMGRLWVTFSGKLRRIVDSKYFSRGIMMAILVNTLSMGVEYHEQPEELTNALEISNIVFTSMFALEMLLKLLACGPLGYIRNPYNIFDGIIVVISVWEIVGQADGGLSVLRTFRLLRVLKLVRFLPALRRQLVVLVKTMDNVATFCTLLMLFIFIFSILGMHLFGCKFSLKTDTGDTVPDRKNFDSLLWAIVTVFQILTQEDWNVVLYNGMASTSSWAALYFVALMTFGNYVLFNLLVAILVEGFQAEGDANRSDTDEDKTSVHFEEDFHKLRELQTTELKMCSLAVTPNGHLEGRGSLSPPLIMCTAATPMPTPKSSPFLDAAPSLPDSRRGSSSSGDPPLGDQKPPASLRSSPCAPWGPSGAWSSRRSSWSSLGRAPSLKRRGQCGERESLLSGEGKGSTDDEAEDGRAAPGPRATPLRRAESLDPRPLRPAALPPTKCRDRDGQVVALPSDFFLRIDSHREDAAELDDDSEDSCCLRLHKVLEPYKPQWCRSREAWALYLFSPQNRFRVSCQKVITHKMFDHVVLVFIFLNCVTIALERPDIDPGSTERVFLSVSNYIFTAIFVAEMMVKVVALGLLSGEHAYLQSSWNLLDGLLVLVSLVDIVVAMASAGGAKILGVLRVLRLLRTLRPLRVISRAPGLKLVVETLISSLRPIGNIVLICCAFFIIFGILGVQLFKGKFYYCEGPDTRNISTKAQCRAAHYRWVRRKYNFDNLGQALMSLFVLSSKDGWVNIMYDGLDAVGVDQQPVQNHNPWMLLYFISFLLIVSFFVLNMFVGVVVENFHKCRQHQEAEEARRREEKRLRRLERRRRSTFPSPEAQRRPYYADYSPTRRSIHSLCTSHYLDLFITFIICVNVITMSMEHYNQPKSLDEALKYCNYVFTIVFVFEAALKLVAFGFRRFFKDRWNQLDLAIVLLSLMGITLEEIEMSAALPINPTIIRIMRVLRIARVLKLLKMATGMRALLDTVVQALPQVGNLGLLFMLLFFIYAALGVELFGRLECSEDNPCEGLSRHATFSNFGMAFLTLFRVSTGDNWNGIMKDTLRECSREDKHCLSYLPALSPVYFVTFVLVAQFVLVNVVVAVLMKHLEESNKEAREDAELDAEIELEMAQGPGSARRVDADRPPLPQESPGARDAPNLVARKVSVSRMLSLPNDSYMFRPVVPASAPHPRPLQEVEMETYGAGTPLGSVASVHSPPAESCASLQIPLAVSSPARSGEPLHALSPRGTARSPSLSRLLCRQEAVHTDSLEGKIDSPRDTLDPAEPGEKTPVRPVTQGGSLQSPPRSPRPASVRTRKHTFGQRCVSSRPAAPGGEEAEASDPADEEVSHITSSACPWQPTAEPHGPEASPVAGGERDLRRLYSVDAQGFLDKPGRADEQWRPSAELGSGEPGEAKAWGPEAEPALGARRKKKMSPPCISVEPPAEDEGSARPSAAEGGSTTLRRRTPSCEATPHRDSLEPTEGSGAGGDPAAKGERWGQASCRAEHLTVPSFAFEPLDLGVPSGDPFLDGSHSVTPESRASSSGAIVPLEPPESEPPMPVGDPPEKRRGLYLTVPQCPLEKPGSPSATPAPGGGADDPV
Paired box protein Pax-8, sequence (Q06710 whole entry): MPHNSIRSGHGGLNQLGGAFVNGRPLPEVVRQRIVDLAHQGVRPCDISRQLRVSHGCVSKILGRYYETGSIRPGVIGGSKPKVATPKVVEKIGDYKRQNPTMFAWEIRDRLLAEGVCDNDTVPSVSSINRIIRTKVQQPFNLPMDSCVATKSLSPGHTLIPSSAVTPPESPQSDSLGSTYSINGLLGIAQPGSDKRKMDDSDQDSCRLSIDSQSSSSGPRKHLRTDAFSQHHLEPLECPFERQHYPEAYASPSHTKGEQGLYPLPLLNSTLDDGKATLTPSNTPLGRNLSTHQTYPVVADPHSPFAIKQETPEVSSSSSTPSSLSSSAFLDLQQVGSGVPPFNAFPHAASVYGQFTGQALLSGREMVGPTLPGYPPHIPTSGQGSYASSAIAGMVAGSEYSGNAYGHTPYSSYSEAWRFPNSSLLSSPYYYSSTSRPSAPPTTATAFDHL

As for `O=C(c1cc(COc2ccc(F)cc2Cl)on1)N1CCSCC1`, the EC50 in experiment [1] is 0.1 µM (active); in experiment [2], 0.63 µM (active); in experiment [3] it was 0.787 µM (active); in experiment [4], > 12 µM (not active); in experiment [5] it was > 12 µM (not active); in [6], 4 µM (active).

Turning to `O=C(O)CSc1ncnc2c1sc1nc(-c3ccccc3)c3c(c12)CCC3`, the IC50 in [7] is 4.04 µM (active). Also, the AC50 in experiment [8] was > 30 µM (inactive).

Take `CC(C)c1ccc(C(=O)NN2C(=O)C3CCCCC3C2=O)cc1` (centres undefined): the EC50 was 28.8 µM (active) in [1]; 1.33 µM (active) in [2]; < 0.1 µM (active) in [3]; 1.48 µM (active) in [4]; 1.21 µM (active) in experiment [5]; 0.118 µM (active) in experiment [6].

As for `COc1ccccc1-c1c[nH]nc1-c1ccc(O)cc1O`, the AC50 in experiment [8] is 21.6 µM (active). In addition, the IC50 in experiment [9] was 42.4 µM (active).

As for `COc1ccc(N2Cc3ccccc3C2)cc1Cl`, in experiment [10], the IC50 is > 100 µM (active).

With `O=C(Nc1cccnc1)c1cc2cc(Br)ccc2oc1=O`, the IC50 is 17.6 µM (not active) in experiment [11] and > 100 µM (active) in [10].

Consider `CCOC(=O)c1c(NC(=O)Cn2cnc([N+](=O)[O-])n2)sc2c1CCC(C)C2` (centres undefined), for which the EC50 in experiment [12] was > 60 µM (not active); in experiment [13] it was < 0.1 µM (active); in experiment [14], 0.221 µM (active).

On to `O=C(CCSc1ccccc1)Nc1nnc(-c2ccccc2)o1`, for which, in [10], the IC50 was > 100 µM (active).

Consider `c1ccc(-n2ncc3c(N4CCC5(CC4)OCCO5)ncnc32)cc1`, for which the EC50 is > 120 µM (not active) in experiment [1]; 0.247 µM (active) in experiment [2]; 0.364 µM (active) in experiment [4]; 1.1 µM (active) in [5]; < 0.1 µM (active) in experiment [6].

As to `COC(=O)CC1C(C)(C)C2(O)OC34CC2C(=O)[C@@]1(C)C3CC[C@]1(C)C4=CC(=O)OC1c1ccoc1` (some centres undefined), in experiment [15], the AC50 was 3.16 µM (inconclusive).

`CCCOc1ccccc1Cn1c(=O)oc2ccc(C)cc21`: the EC50 in [16] was 10.6 µM (active).

Consider `C=C1C2(C(=O)Nc3ccc(SC(F)F)cc3)CCC(C2)C1(C)C` (centres undefined), for which the AC50 in experiment [17] is 62.8 µM (active). The IC50 in experiment [10] is > 100 µM (active).

For `COc1ccc(C#Cc2ccc([C@@H]3[C@@H](CO)N4CCCCN(Cc5ccccc5F)C[C@H]34)cc2)cc1`, the AC50 in [18] is 7.91 µM (active); in experiment [19], 0.807 µM (active).

For the compound `CC1CCc2c(sc(NC(=O)Cn3cnc([N+](=O)[O-])n3)c2C(N)=O)C1` (centres undefined), the EC50 in [12] is > 30 µM (not active); in experiment [13] it was < 0.1 µM (active); in experiment [14], 0.102 µM (active).

`CCC(=O)Nc1ccc(NC(=O)c2ccco2)c(OC)c1`: the IC50 in experiment [20] is > 100 µM (not active).

In the case of `CC1(C)CC2=Nc3nc(SCCN4CCOCC4)nc(O)c3C(c3cccs3)C2=C(O)C1` (centres undefined), in [21], the concentration giving a half-maximal response (EC50) is 47.7 µM (not active).

Consider `COc1ccccc1NC(=O)N1CCc2[nH]c3ccc(Cl)cc3c2C1`, for which, in experiment [16], the EC50 is 11.4 µM (active).

Consider `CCCc1cn(CC[C@H]2CC[C@@H](NS(=O)(=O)c3ccc(-c4ccccc4)cc3)[C@@H](CO)O2)nn1`, for which the AC50 in [22] is 0.914 µM (active); in experiment [23], 0.833 µM (active); in experiment [24], 0.963 µM (active); in experiment [18], > 39 µM (inactive); in experiment [19] it was 0.689 µM (active); in [25], 47.4 µM (active).

Take `O=C(CCCn1c(=S)[nH]c2ccsc2c1=O)NCc1ccco1`: the IC50 in experiment [20] is given as > 100 µM (not active).

In the case of `C(=C\c1ccccc1)/CN1CCN(Cc2ccc3c(c2)OCCO3)CC1`, the half-maximal effective concentration (EC50) in experiment [12] was > 60 µM (not active); in experiment [13], < 0.1 µM (active); in experiment [14], 0.053 µM (active).

On to `CCOC(=O)N1CCN(C(=O)c2cc(COc3ccc4ncccc4c3)on2)CC1`, for which, in experiment [26], the IC50 was 0.555 µM (active). For the same compound, the AC50 in experiment [8] was > 30 µM (inactive).

With `Oc1ccc2c(c1)OCC1c3cc4c(cc3OC21)OCO4` (centres undefined), in [15], the AC50 is 39.8 µM (inconclusive).

`Cc1cc(C)nc(S/C=C/C(=O)c2ccc(F)cc2)n1`: the EC50 in experiment [21] is 0.81 µM (active).

As usually defined, the EC50 is the concentration giving half of the maximal effect. One may read the AC50 as the concentration giving half of the maximal activity seen.
